The experiment deals with NA of A/Texas/12/2007 (H3N2 119 V) (Influenza A virus (A/Texas/12/2007(H3N2)), UniProt D1FVK3, I119V). The experiment in a line: biochemical. Type of experiment: biochemical.

Like-named read-outs stand apart in the source and are kept apart here. Marks after values point to notes of the source that are not given here.

The term IC50 denotes the concentration that inhibits the measured activity by half.

For `CC(=O)N[C@H]1[C@H]([C@H](O)[C@H](O)CO)OC(C(=O)O)=C[C@@H]1N=C(N)N` [Zanamivir, zanamivir], the IC50 amounted to 1.56 ± 0.55 nM.
Regarding oseltamivir carboxylate, the Fold change is listed as 520.08^c fold. Besides, the IC50 (read-out: Mean IC50 (nM) ± SD) came to 62.4 ± 2.16 nM.

The values are drawn from PMC6604316 (Virology Journal, 2019).
